Results published in patent publication US10570122B2, “Compounds with anti-tumoral activity” (AB Science, priority 2015, dated 2020).

How the values were obtained:
HCT116 = test: CellTiter-Blue cell-based survival/proliferation assay, HCT116; conditions: Homo sapiens, HCT-116; HCT116 colorectal tumor cell line, 48 h
In short: (§1)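 Compounds, diluted tenfold serially over 0–10 μM, are applied to 1·10^4 seeded cells per well for 48 h at 37 °C. Resorufin formed during a further 4 h with CellTiter-Blue is detected by fluorescence emission at 590 nm.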

H1299 = test: CellTiter-Blue cell-based survival/proliferation assay, H1299; conditions: Homo sapiens, NCI-H1299; H1299 lung tumor cell line, 48 h
In short: as §1

BT20 = test: CellTiter-Blue cell-based survival/proliferation assay, BT20; conditions: Homo sapiens, BT-20; BT20 breast tumor cell line, 48 h
In short: as §1

HL60 = test: CellTiter-Blue cell-based survival/proliferation assay, HL60; conditions: Homo sapiens, HL-60, Leukemia cell line HL60, 48 h, read-out: Anti-tumoral activity (measured IC50) HL60
In short: as §1

OPM2 = test: CellTiter-Blue cell-based survival/proliferation assay, OPM2; conditions: Homo sapiens, OPM-2, Myeloma cell line OPM2, 48 h, read-out: Anti-tumoral activity (measured IC50) OPM2
In short: as §1

A375 = test: CellTiter-Blue cell-based survival/proliferation assay, A375; conditions: Homo sapiens, A-375; A375 melanoma cell line, 48 h
Description: (§2) Cell-Based Proliferation Screening of Compounds
(§3) CellTiter-Blue cell-based survival/proliferation assay (Promega G8080) was performed on tumor cell lines. A total of 1·10^4 cells/well/50 μl were seeded in a 96-wells plate. Treatment was initiated by addition of a 2× drug solution of 1/10 serial dilutions ranging from 0 to 10 μM. Cells were grown for 48 h at 37° C. and then incubated with 10 μl/well of Promega CellTiter-Bleue reagent for 4 h at 37° C. The amount of resorufin dye formed was quantified by its fluorescence emission at 590 nm using a scanning multiwell spectrophotometer (OPTIMA, BMG labtech, France). A blank well without cells was used as a background control for the spectrophotometer.

A498 = test: CellTiter-Blue cell-based survival/proliferation assay, A498; conditions: Homo sapiens; A498 kidney tumor cell line, 48 h
In short: as §1

HEP2 = test: CellTiter-Blue cell-based survival/proliferation assay, HEP2; conditions: Homo sapiens, HEp-2; HEP2 head & neck tumor cell line, 48 h
In short: as §1

HGC27 = test: CellTiter-Blue cell-based survival/proliferation assay, HGC27; conditions: Homo sapiens, HGC-27; HGC27 stomach tumor cell line, 48 h
In short: as §1

AGS = test: CellTiter-Blue cell-based survival/proliferation assay, AGS; conditions: Homo sapiens; AGS stomach tumor cell line, 48 h
In short: as §1

U118 = test: CellTiter-Blue cell-based survival/proliferation assay, U118; conditions: Homo sapiens; U118 glioblastoma cell line, 48 h
Description: as §2, §3

A4513 = test: CellTiter-Blue cell-based survival/proliferation assay, A4513; conditions: Homo sapiens; A4513 Ewing cell line, 48 h
Description: as §2, §3

SW579 = test: CellTiter-Blue cell-based survival/proliferation assay, SW579; conditions: Homo sapiens; SW579 head & neck tumor cell line, 48 h
In short: as §1

MESSA = test: CellTiter-Blue cell-based survival/proliferation assay, MESSA; conditions: Homo sapiens, MES-SA; MESSA ovary tumor cell line, 48 h
In short: as §1

HUT78 = test: CellTiter-Blue cell-based survival/proliferation assay, HUT78; conditions: Homo sapiens, Lymphoma cell line HUT78, 48 h, read-out: Anti-tumoral activity (measured IC50) HUT78
In short: as §1

HEPG2 = test: CellTiter-Blue cell-based survival/proliferation assay, HEPG2; conditions: Homo sapiens; HEPG2 liver tumor cell line, 48 h
In short: as §1

DU145 = test: CellTiter-Blue cell-based survival/proliferation assay, DU145; conditions: Homo sapiens, DU-145; DU145 prostate tumor cell line, 48 h
In short: as §1

U2OS = test: CellTiter-Blue cell-based survival/proliferation assay, U2OS; conditions: Homo sapiens; U2OS osteosarcoma cell line, 48 h
Description: as §2, §3

ACHN = test: CellTiter-Blue cell-based survival/proliferation assay, ACHN; conditions: Homo sapiens; ACHN kidney tumor cell line, 48 h
In short: as §1

MDAMB231 = test: CellTiter-Blue cell-based survival/proliferation assay, MDAMB231; conditions: Homo sapiens, MDA-MB-231; MDAMB231 breast tumor cell line, 48 h
In short: as §1

PANC1 = test: CellTiter-Blue cell-based survival/proliferation assay, PANC1; conditions: Homo sapiens, PANC-1; PANC_1 pancreas tumor cell line, 48 h
In short: as §1

PC3 = test: CellTiter-Blue cell-based survival/proliferation assay, PC3; conditions: Homo sapiens, PC-3; PC3 prostate tumor cell line, 48 h
In short: as §1

U87MG = test: CellTiter-Blue cell-based survival/proliferation assay, U87MG; conditions: Homo sapiens, U-87 MG; U87_MG glioblastoma cell line, 48 h
Description: as §2, §3

CLS354 = test: CellTiter-Blue cell-based survival/proliferation assay, CLS354; conditions: Homo sapiens, CLS-354; CLS354_4 head & neck tumor cell line, 48 h
In short: as §1

PLCPRF5 = test: CellTiter-Blue cell-based survival/proliferation assay, PLCPRF5; conditions: Homo sapiens, PLC-PRF-5; PLC_PRF5 liver tumor cell line, 48 h
In short: as §1

KARPAS299 = test: CellTiter-Blue cell-based survival/proliferation assay, KARPAS299; conditions: Homo sapiens, KARPAS-299, Lymphoma cell line KARPAS299, 48 h, read-out: Anti-tumoral activity (measured IC50) KARPAS299
In short: as §1

MELWO = test: CellTiter-Blue cell-based survival/proliferation assay, MELWO; conditions: Homo sapiens; MEL_WO melanoma cell line, 48 h
Description: as §2, §3

REC1 = test: CellTiter-Blue cell-based survival/proliferation assay, REC1; conditions: Homo sapiens, Lymphoma cell line REC1, 48 h, read-out: Anti-tumoral activity (measured IC50) REC1
In short: as §1

CALU6 = test: CellTiter-Blue cell-based survival/proliferation assay, CALU6; conditions: Homo sapiens, Calu-6; CALU6 lung tumor cell line, 48 h
In short: as §1

TOV112D = test: CellTiter-Blue cell-based survival/proliferation assay, TOV112D; conditions: Homo sapiens; TOV112D ovary tumor cell line, 48 h
In short: as §1

A549 = test: CellTiter-Blue cell-based survival/proliferation assay, A549; conditions: Homo sapiens; A549 lung tumor cell line, 48 h
In short: as §1

DLD1 = test: CellTiter-Blue cell-based survival/proliferation assay, DLD1; conditions: Homo sapiens, DLD-1; DLD_1 colorectal tumor cell line, 48 h
In short: as §1

BXPC3 = test: CellTiter-Blue cell-based survival/proliferation assay, BXPC3; conditions: Homo sapiens, BXPC-3; BXPC3 pancreas tumor cell line, 48 h
In short: as §1

| SMILES | IC50 (HCT116) | IC50 (H1299) | IC50 (BT20) | IC50 (HL60) | IC50 (OPM2) | IC50 (A375) | IC50 (A498) | IC50 (HEP2) | IC50 (HGC27) | IC50 (AGS) | IC50 (U118) | IC50 (A4513) | IC50 (SW579) | IC50 (MESSA) | IC50 (HUT78) | IC50 (HEPG2) | IC50 (DU145) | IC50 (U2OS) | IC50 (ACHN) | IC50 (MDAMB231) | other results |
| --- | --- | --- | --- | --- | --- | --- | --- | --- | --- | --- | --- | --- | --- | --- | --- | --- | --- | --- | --- | --- | --- |
| COc1ccc(C)c(Nc2ncc(-c3ccc(-n4cccn4)nc3)o2)c1 [Example 001, (5-Methoxy-2-methyl-phenyl)-[5-(6-pyrazol-1-yl-pyridin-3-yl)-oxazol-2-yl]-amine] | > 1 µM | > 1 µM | > 1 µM | > 1 µM | > 1 µM | > 1 µM | > 1 µM | > 1 µM | > 1 µM | > 1 µM | > 1 µM | > 1 µM | > 1 µM | > 1 µM | > 1 µM | > 1 µM | > 1 µM | > 1 µM | > 1 µM | > 1 µM | IC50 (PANC1): > 1 µM; IC50 (PC3): > 1 µM; IC50 (U87MG): > 1 µM; IC50 (CLS354): > 1 µM; IC50 (PLCPRF5): > 1 µM; IC50 (KARPAS299): 0.5 to 1 µM; IC50 (MELWO): > 1 µM; IC50 (REC1): 0.5 to 1 µM; IC50 (CALU6): > 1 µM; IC50 (TOV112D): > 1 µM; IC50 (A549): > 1 µM; IC50 (DLD1): > 1 µM; IC50 (BXPC3): > 1 µM |
| CCOCc1ccc(C)c(Nc2ncc(-c3ccc(-n4cccn4)c(OC)c3)o2)c1 [Example 002, (5-Ethoxymethyl-2-methyl-phenyl)-[5-(3-methoxy-4-pyrazol-1-yl-phenyl)-oxazol-2-yl]-amine] | > 1 µM | > 1 µM | > 1 µM | > 1 µM | > 1 µM | > 1 µM | > 1 µM | > 1 µM | > 1 µM | > 1 µM | > 1 µM | > 1 µM | > 1 µM | > 1 µM | > 1 µM | > 1 µM | > 1 µM | > 1 µM | > 1 µM | > 1 µM | IC50 (PANC1): > 1 µM; IC50 (PC3): > 1 µM; IC50 (U87MG): > 1 µM; IC50 (CLS354): > 1 µM; IC50 (PLCPRF5): > 1 µM; IC50 (KARPAS299): > 1 µM; IC50 (MELWO): > 1 µM; IC50 (REC1): > 1 µM; IC50 (CALU6): > 1 µM; IC50 (TOV112D): > 1 µM; IC50 (A549): > 1 µM; IC50 (DLD1): > 1 µM; IC50 (BXPC3): > 1 µM |
| CCOCc1ccc(C)c(Nc2ncc(-c3ccc(-n4cccn4)cc3)s2)c1 [Example 004, (5-Ethoxymethyl-2-methyl-phenyl)-[5-(4-pyrazol-1-yl-phenyl)-thiazol-2-yl]-amine] | > 1 µM | > 1 µM | > 1 µM | > 1 µM | > 1 µM | > 1 µM | > 1 µM | > 1 µM | > 1 µM | > 1 µM | > 1 µM | > 1 µM | > 1 µM | > 1 µM | > 1 µM | > 1 µM | > 1 µM | > 1 µM | > 1 µM | > 1 µM | IC50 (PANC1): > 1 µM; IC50 (PC3): > 1 µM; IC50 (U87MG): > 1 µM; IC50 (CLS354): > 1 µM; IC50 (PLCPRF5): > 1 µM; IC50 (KARPAS299): > 1 µM; IC50 (MELWO): > 1 µM; IC50 (REC1): > 1 µM; IC50 (CALU6): > 1 µM; IC50 (TOV112D): > 1 µM; IC50 (A549): > 1 µM; IC50 (DLD1): > 1 µM; IC50 (BXPC3): > 1 µM |
